Data from patent publication US7521480B2, “Aryl ureido benzoic acid derivatives and their use” (Neurosearch, priority 2002, dated 2009).

Target: T1, GluR6 receptor (Homo sapiens, UniProt Q13002)
T1 construct: expressed in transfected cells; host or cells: HEK 293
Assay: GluR6 functional assay: inhibition of domoate-induced increase in Cai (FLIPR)
Assay type: cell-based
Details: HEK 293 cells stably expressing GluR6; domoate 0.2 μM; Fluo-4 FLIPR, 25° C.
Source text: (§1) This example describes cell-based assays carried out using human embryonic HEK 293 cells stably expressing GluR5 and GluR6 receptors, respectively, in which assays the inhibition of domoate-induced increase in Cai is used as a measure for glutamate antagonist activity of test substances.
(§2) The intracellular free calcium concentration (Cai) is regulating the majority of metabolic processes in mammalian cells. Elevations of Cai in excitable tissues such as neurones are seen after specific activation of receptor operated calcium channels (e.g. glutamate, receptors), or after depolarisation and opening of voltage operated calcium channels. Some neurotransmitters and neuro-modulator increase Cai by activating G-protein coupled ionophors or by release of Cai from intracellular stores via the second messenger IP3.
(§3) Cai is determined by fluorometric methods in a Fluorescent Image Plate Reader (FLIPR). Calcium-chelating fluorochromes (tetracarboxylic acids) are loaded into the cells as acetoxymethyl esters and subsequently released by an unspecific intracellular esterase. The free acids, which are impermeable to the cell membrane, are maintained in the cell for hours. The fluorescence spectrum (either EXmax, EMmax or both) is changed by the binding of calcium, and the fluorescence is directly proportional to the Cai.
The present method uses the fluorochromes Fluo-3 or Fluo-4 as the calcium-chelator. Fluo-3/Fluo-4 is virtually non-fluorescent without calcium, but the calcium-Fluo-3/Fluo-4 complexes show a bright fluorescence (EMmax=526 nm) after excitation around 500 nm (EXmax=505 nm). This fluorescence spectrum is similar to the spectrum of fluorescein. Since excitation and emission is in the visible light region of the spectrum, standard equipment without quarts optics may be used. […]
(§4) After the loading period, the loading media is aspirated and the cells are washed twice with 100 μl Na^+ free Ringer (NN: 10 mM HEPES, 140 mM Choline chloride, 5 mM KCl, 1 mM MgCl2, 10 mM CaCl2, pH 7.4) to remove extracellular dye. 100 μl NN is added to each well, and the fluorescence is measured in the FLIPR.
(§5) Cells are pre-incubated for 1.5 min with test compound (50 μl) before addition of domoate (50 μl) to a final concentration of 2 μM when determined on GluR5 and 0.2 μM when determined on GluR6. […]
• Temperature: 25° C. • Preincubation: 50 μl test solution at a rate of 30 μl/sec and starting height of 100 μl • […] phase: 50 μl domoate solution (8 μM) at a rate of 35 μl/sec and starting height of 150 μl • Reading intervals: preincubation—10 sec×7 and 3 sec×3 antagonist phase—3 sec×17 and 10 sec×12 […]

T1 sequence (Q13002 32-908): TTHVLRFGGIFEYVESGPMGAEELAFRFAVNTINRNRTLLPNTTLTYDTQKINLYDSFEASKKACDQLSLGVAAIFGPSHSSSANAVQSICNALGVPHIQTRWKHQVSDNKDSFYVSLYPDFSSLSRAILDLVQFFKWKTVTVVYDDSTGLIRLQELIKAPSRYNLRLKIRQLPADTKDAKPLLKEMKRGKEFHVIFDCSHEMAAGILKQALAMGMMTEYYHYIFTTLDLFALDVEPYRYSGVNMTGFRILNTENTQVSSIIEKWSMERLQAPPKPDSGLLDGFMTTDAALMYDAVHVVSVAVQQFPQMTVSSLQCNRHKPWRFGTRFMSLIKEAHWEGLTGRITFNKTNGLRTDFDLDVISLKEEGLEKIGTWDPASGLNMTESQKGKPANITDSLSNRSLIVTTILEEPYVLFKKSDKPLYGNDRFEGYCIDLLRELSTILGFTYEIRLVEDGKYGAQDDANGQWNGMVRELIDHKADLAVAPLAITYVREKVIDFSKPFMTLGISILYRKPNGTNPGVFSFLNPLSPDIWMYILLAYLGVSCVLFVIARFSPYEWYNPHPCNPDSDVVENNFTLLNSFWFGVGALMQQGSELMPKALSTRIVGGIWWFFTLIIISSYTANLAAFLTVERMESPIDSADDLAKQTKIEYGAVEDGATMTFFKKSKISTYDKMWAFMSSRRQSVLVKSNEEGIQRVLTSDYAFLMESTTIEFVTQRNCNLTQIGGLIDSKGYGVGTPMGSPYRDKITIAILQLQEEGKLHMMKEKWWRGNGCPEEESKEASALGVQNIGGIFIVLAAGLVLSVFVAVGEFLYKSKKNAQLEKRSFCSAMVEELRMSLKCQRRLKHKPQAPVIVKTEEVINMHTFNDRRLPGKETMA

Molecule	IC50
2-[3-(3-Bromo-phenyl)-ureido]-4-chloro-benzenesulfonic acid, triethylammonium salt [Compound A1]	10 µM
Cc1cc(S(=O)(=O)O)c(NC(=O)Nc2cccc(Br)c2)cc1Cl [Compound 1a, 2-[3-(3-Bromo-phenyl)-ureido]-4-chloro-5-methyl-benzenesulfonic acid]	32 µM
O=C(Nc1cccc(Cl)c1)Nc1cc(Cl)ccc1C(=O)O [Compound C14, 4-Chloro-2-[3-(3-chloro-phenyl)-ureido]-benzoic acid]	37 µM
O=C(Nc1ccc2ccccc2c1)Nc1cc(Cl)ccc1C(=O)O [Compound E2, 4-Chloro-2-(3-naphtalen-2-yl-ureido)-benzoic acid]	70 µM

Target: T2, GluR5 receptor (Homo sapiens, UniProt P39086)
T2 construct: expressed in transfected cells; host or cells: HEK 293
T2 sequence (P39086 31-918): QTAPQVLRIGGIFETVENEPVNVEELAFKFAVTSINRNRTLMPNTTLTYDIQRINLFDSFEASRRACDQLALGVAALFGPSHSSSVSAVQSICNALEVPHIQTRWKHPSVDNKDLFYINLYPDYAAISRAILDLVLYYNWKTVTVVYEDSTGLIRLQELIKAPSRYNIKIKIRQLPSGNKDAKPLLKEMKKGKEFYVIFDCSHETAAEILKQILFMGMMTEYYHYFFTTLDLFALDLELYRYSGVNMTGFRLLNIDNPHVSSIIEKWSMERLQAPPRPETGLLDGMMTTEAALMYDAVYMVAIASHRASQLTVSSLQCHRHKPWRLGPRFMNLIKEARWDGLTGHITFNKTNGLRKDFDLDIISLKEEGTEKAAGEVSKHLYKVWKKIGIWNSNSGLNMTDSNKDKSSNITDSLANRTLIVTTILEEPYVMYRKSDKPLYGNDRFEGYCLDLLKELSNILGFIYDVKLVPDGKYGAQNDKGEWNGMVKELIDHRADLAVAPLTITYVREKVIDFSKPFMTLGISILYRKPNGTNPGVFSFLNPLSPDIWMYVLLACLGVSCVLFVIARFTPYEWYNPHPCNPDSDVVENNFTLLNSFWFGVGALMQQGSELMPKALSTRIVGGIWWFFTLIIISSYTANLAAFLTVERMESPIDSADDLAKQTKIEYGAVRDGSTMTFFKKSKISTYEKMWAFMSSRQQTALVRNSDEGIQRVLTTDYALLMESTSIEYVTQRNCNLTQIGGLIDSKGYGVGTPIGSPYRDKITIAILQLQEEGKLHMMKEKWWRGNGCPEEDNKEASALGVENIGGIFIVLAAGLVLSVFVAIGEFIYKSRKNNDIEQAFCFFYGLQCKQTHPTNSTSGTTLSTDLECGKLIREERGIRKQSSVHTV
Assay: GluR5 functional assay: inhibition of domoate-induced increase in Cai (FLIPR)
Assay type: cell-based
Details: HEK 293 cells stably expressing GluR5; domoate 2 μM; Fluo-4 FLIPR, 25° C.
Source text: as §1, §2, §3
The present method uses the fluorochromes Fluo-3 or Fluo-4 as the calcium-chelator. Fluo-3/Fluo-4 is virtually non-fluorescent without calcium, but the calcium-Fluo-3/Fluo-4 complexes show a bright fluorescence (EMmax=526 nm) after excitation around 500 nm (EXmax=505 nm). This fluorescence spectrum is similar to the spectrum of fluorescein. Since excitation and emission is in the visible light region of the spectrum, standard equipment without quarts optics may be used.
The kainate subtype of ionotropic glutamate receptors exists of two high affinity subunits—KA1 and KA2, and three low affinity subunits—GluR5-7. The ion channel in the GluR5 receptor subtype can be made permeable for calcium by substitution of an arginine (R) to a glutamine (Q) in the pore region. The stably expressed human GluR5 receptors used here are calcium permeable (Q), which makes them ideal for fluorescence measurements. […]
as §4, §5

Molecule	IC50
2-[3-(3-Bromo-phenyl)-ureido]-4-chloro-benzenesulfonic acid, triethylammonium salt [Compound A1]	1.5 µM
Cc1cc(S(=O)(=O)O)c(NC(=O)Nc2cccc(Br)c2)cc1Cl [Compound 1a, 2-[3-(3-Bromo-phenyl)-ureido]-4-chloro-5-methyl-benzenesulfonic acid]	1.1 µM
O=C(Nc1cccc(Cl)c1)Nc1cc(Cl)ccc1C(=O)O [Compound C14, 4-Chloro-2-[3-(3-chloro-phenyl)-ureido]-benzoic acid]	1.3 µM
O=C(Nc1ccc2ccccc2c1)Nc1cc(Cl)ccc1C(=O)O [Compound E2, 4-Chloro-2-(3-naphtalen-2-yl-ureido)-benzoic acid]	1.2 µM

System: not given
Assay: not given
Details: not given

melting point	Molecule
284 to 286 °C (dec.)	Cc1cc(S(=O)(=O)O)c(NC(=O)Nc2cc3ccccc3[nH]2)cc1Cl
277 to 279 °C (dec.)	O=C(Nc1cc2ccccc2[nH]1)Nc1cc(Cl)ccc1S(=O)(=O)O
186 to 188 °C	O=C(Nc1ccccc1)Nc1cc(Cl)ccc1C(=O)O
205 to 207 °C	O=C(Nc1ccc(Cl)cc1)Nc1cc(Cl)ccc1C(=O)O
192 to 193 °C	O=C(Nc1cccc(I)c1)Nc1cc(Cl)ccc1C(=O)O
194 to 195 °C	COc1ccc(NC(=O)Nc2cc(Cl)ccc2C(=O)O)cc1
173 to 175 °C	O=C(Nc1cc(Cl)ccc1C(=O)O)Nc1ccccc1C(F)(F)F
183 to 185 °C	O=C(Nc1ccc2c(c1)OCO2)Nc1cc(Cl)ccc1C(=O)O
208 to 209 °C	O=C(Nc1cc(Cl)ccc1C(=O)O)Nc1ccccc1-c1ccccc1
193 to 194 °C	O=C(Nc1ccc(-c2ccccc2)cc1)Nc1cc(Cl)ccc1C(=O)O
194 to 195 °C	O=C(Nc1ccc(F)cc1)Nc1cc(Cl)ccc1C(=O)O
209 to 210 °C (dec.)	O=C(Nc1ccc(I)cc1)Nc1cc(Cl)ccc1C(=O)O
246 to 248 °C (dec.)	O=C(Nc1cccc(C(F)(F)F)c1)Nc1cc(Cl)ccc1-c1noc(=O)[nH]1
210 to 211 °C (dec.)	O=C(Nc1cccc(Br)c1)Nc1cc(Cl)ccc1-c1noc(=O)[nH]1
222 to 224 °C	O=C(Nc1ccccn1)Nc1cc(Cl)ccc1C(=O)O
199 to 200 °C	O=C(Nc1cccs1)Nc1cc(Cl)ccc1C(=O)O
260 to 263 °C (dec.)	O=C(Nc1ccc2c(c1)-c1ccccc1C2=O)Nc1cc(Cl)ccc1C(=O)O
212 to 214 °C (dec.)	O=C(Nc1ccc(O)cc1)Nc1cc(Cl)ccc1C(=O)O

Second part, the molecule before the results:

Molecule	melting point
COc1ccccc1NC(=O)Nc1cc(Cl)ccc1C(=O)O	181 to 183 °C
O=C(Nc1cccc(C(F)(F)F)c1)Nc1cc(Cl)ccc1C(=O)O	179 to 182 °C
O=C(Nc1ccccc1Br)Nc1cc(Cl)ccc1C(=O)O	195 to 197 °C
Cc1cc(S(=O)(=O)O)c(NC(=O)Nc2ccc3ccccc3c2)cc1Cl	> 300 °C
O=C(Nc1ccc2ccccc2c1)Nc1cc(Cl)ccc1-c1nnn[nH]1	167 to 169 °C (dec.)
O=C(Nc1cccc(-c2ccccc2)c1)Nc1cc(Cl)ccc1C(=O)O	181 to 183 °C
O=C(Nc1cccc(O)c1)Nc1cc(Cl)ccc1C(=O)O	209 to 211 °C
O=C(Nc1ccccc1O)Nc1cc(Cl)ccc1C(=O)O	179 to 180 °C (dec.)
O=C(Nc1cccc(Cl)c1)Nc1cc(Cl)ccc1C(=O)O [Compound C14, 4-Chloro-2-[3-(3-chloro-phenyl)-ureido]-benzoic acid]	207 to 209 °C
O=C(Nc1ccc2ccccc2c1)Nc1cc(Cl)ccc1C(=O)O [Compound E2, 4-Chloro-2-(3-naphtalen-2-yl-ureido)-benzoic acid]	176 to 179 °C
